Values joined by “and” are separate entries in the source; they are usually repeats but may differ in a detail not shown here. Equal entries are not always repeated. Where two headings read alike, the source gives them in different places.
Key:
[1] = tested on: T47D; assay: PrestoBlue cytotoxicity assay; type: cell-based; settings: for pIC50 (mean): Table S5
Procedure: (§1) MDA-MB-231 breast adenocarcinoma and MCF-7 and T-47D invasive breast carcinomas were purchased from the Developmental Therapeutic Program of the National Cancer Institute (NIH, USA), and they were cultured in RPMI medium (Thermo Fisher). MES–SA and MES–SA/Dx5 uterine sarcoma cell lines were purchased from American Type Culture Collection and were kept in DMEM (Thermo Fisher). MES–SA/B1 was created by the transfection of the human MDR1 gene in MES–SA, and MES–SA mCherry, MES–SA/B1 mOrange, and MES–SA/Dx5 eGFP were engineered to stably express the respective fluorescent proteins, as described previously. Culture media were supplemented with 10% fetal bovine serum, 2 mM L-glutamine, 100 units/mL penicillin, and 100 μg/mL streptomycin (Thermo Fisher). Cells were kept at 37 °C under 5% CO2 and were negative for mycoplasma infection.
(§2) Cytotoxicity of the nonfluorescent cancer cells (MDA-MB-231, MCF-7, T-47D) were assessed with PrestoBlue cell viability reagent (Thermo Fisher). Briefly, 2500 cells/well were seeded on 384-well plates, and then the next day drugs were added. After 72 h incubation, PrestoBlue was added in a 10% final concentration, and after an hour of additional incubation, plates were measured with a PerkinElmer EnSpire plate reader at 555 nm/585 nm excitation/emission wavelengths. Fluorescent cells (MES-SA mCherry, MES-SA/B1 mOrange, MES-SA/Dx5 eGFP) were admixed before seeding on 384-well plates at 800 cells/well density each, thus altogether 2400 cells/well. Drugs were added the following day, and the intensity of the fluorescent proteins were measured after 144 h incubation at the respective fluorescent channels (excitation/emission: eGFP: 485 nm/510 nm; mCherry: 585 nm/610 nm; mOrange: 545 nm/567 nm). pIC50 values were calculated by a custom program written by Judit Sessler in C#. IC50 values and standard deviation were calculated from average pIC50 values from at least 3 independent measurements. Since the IC50 values were obtained through nonlinear regression fitting of the viability vs. log(concentration) data, the resulting confidence intervals are inherently asymmetric (see pIC50 values and their corresponding SD in Tables S5 and S6).

[2] = tested on: MDA-MB-231; assay: PrestoBlue cytotoxicity assay; type: cell-based; settings: for pIC50 (mean): Table S5
Procedure: as §1, §2

[3] = tested on: MCF-7; assay: PrestoBlue cytotoxicity assay; type: cell-based; settings: for pIC50 (mean): Table S5
Procedure: as §1, §2

[4] = tested on: MES-SA/Dx5-eGFP; assay: fluorescent triple coculture cytotoxicity assay; type: cell-based, human; settings: for SR (MES-SA/Dx5): selectivity ratio versus parental MES-SA
Text: (§3) Cytotoxicity of the compounds were further tested also in an in vitro MDR model system, consisting of an MES-SA uterine sarcoma cell line, and its P-gp (ABCB1) overexpressing variants MES-SA/B1, that was genetically engineered to express P-gp, and MES-SA/Dx5, which acquired a P-gp-mediated MDR phenotype due to selection in doxorubicin. , The expression of different fluorescent proteins in each line (mCherry, mOrange, or eGFP) allowed coculturing of these three cell lines, providing more relevant data compared to monocultures, as the interaction between parental and resistant phenotypes is reflected in cytotoxicity.
(§4) Cytotoxicity of nanoformulated [RhCp*(BP)-Cl]-Cl with cross-linked HSA and HTP carriers was tested against the previously introduced triple coculture of fluorescent MES-SA cells with a slight difference. Namely, the media containing the dissolved products were removed from the wells, and fresh media was added prior to the measurement as the presence of cross-linked HSA and HTP formulations interfered with the fluorescence of the cells.
as §1
as §2, with “Fluorescent cells (MES-SA mCherry, MES-SA/B1 mOrange, MES-SA/Dx5 eGFP) were admixed before seeding on 384-well plates at 800 cells/well density each, thus altogether 2400 cells/well.” left out

[5] = tested on: MES-SA mCherry; assay: fluorescent triple coculture cytotoxicity assay; type: cell-based, human
Text: as §3, §4, §1
as §2, with “Fluorescent cells (MES-SA mCherry, MES-SA/B1 mOrange, MES-SA/Dx5 eGFP) were admixed before seeding on 384-well plates at 800 cells/well density each, thus altogether 2400 cells/well.” left out

[6] = tested on: MES-SA/B1-mOrange; assay: fluorescent triple coculture cytotoxicity assay; type: cell-based, human; settings: for SR (MES-SA/B1): selectivity ratio versus parental MES-SA
Text: as §3, §4, §1
as §2, with “Fluorescent cells (MES-SA mCherry, MES-SA/B1 mOrange, MES-SA/Dx5 eGFP) were admixed before seeding on 384-well plates at 800 cells/well density each, thus altogether 2400 cells/well.” left out

[7] = n-octanol/water distribution coefficient, shake-flask; type: physicochemical; settings: n-octanol/20 mM phosphate buffer, pH = 7.4, t = 25 °C; for logD at 4 h: n-octanol/buffered aqueous solution
Text: The bioactive compounds must cross the cell membrane, which is influenced by their lipophilicity. Therefore, we characterized the lipophilicity of the complexes using n-octanol–water partitioning at three different chloride ion concentrations at pH 7.4. As the H2O/Cl^– exchange alters the charge of the complexes, it consequently affects their lipophilicity. The ratio of chlorido and aqua complexes depends on the actual Cl^– concentration and the chloride affinity of the complex. Chloride ion concentrations were chosen to mimic physiological conditions, specifically those found in blood (100 mM), cytosol (24 mM), and the nucleus (4 mM).
The traditional shake-flask method was used to obtain distribution coefficients of the ligands as well as of the complexes in n-octanol/buffered aqueous solution (20 mM phosphate, pH = 7.4) at different chloride ion concentrations (4, 24, and 100 mM) using UV–vis spectrophotometry (Agilent Cary 8454 diode array spectrophotometer) for the analysis. The compounds were dissolved in buffered aqueous solutions previously saturated with n-octanol. Then the aqueous and n-octanol phases were gently mixed in different volume ratios (using 1:60 for the ligands, 1:10 for the RhCp* and the RuCym complexes ratios of n-octanol to buffered aqueous solution volume) for 4 h, followed by phase separation. Then the UV–vis spectrum of the original aqueous sample and the aqueous and n-octanol phases was recorded and distribution coefficients (D) were calculated according to the formula described in our former work in detail.

[8] = Homo sapiens, 72 h, 384-well plate, read-out: IC50
[9] = Homo sapiens, Table S5, read-out: pIC50 (mean) (converted)
[10] = Homo sapiens, MCF7, 72 h, 384-well plate, read-out: IC50
[11] = Homo sapiens, MCF7, Table S5, read-out: pIC50 (mean) (converted)
[12] = Homo sapiens, MES-SA/Dx5-eGFP, coculture, 384-well plate, 144 h, read-out: IC50
[13] = Homo sapiens, Mes-Sa/Dx5 eGFP, 384-well plate, Table S6, read-out: pIC50 (mean) (converted)
[14] = Homo sapiens, MES-SA, 144 h, MES-SA mCherry, coculture, 384-well plate, 144 h, read-out: IC50
[15] = Homo sapiens, MES-SA, Mes-Sa mCherry, 384-well plate, Table S6, read-out: pIC50 (mean) (converted)
[16] = Homo sapiens, MES-SA/B1-mOrange, coculture, 384-well plate, 144 h, read-out: IC50
[17] = Homo sapiens, Mes-Sa/B1 mOrange, 384-well plate, Table S6, read-out: pIC50 (mean) (converted)
[18] = MES-SA mCherry, coculture, 384-well plate, 144 h, read-out: IC50
[19] = 72 h, 384-well plate, read-out: IC50
[20] = MES-SA/Dx5-eGFP, coculture, 384-well plate, 144 h, read-out: IC50
[21] = Mes-Sa/Dx5 eGFP, 384-well plate, Table S6
[22] = Mes-Sa mCherry, 384-well plate, Table S6
[23] = MES-SA/B1-mOrange, coculture, 384-well plate, 144 h, read-out: IC50
[24] = Mes-Sa/B1 mOrange, 384-well plate, Table S6

Molecule | IC50 [1, 8] | IC50 [1, 9] | IC50 [2, 8] | SR (MES-SA/Dx5) ([4]; 384-well plate) | SR (MES-SA/B1) ([6]; 384-well plate) | IC50 [5, 18] | IC50 [1, 19] | pIC50 (mean) [1] | IC50 [2, 19] | pIC50 (mean) [2] | IC50 [3, 19] | pIC50 (mean) [3] | IC50 [4, 20] | pIC50 (mean) [4, 21] | pIC50 (mean) [5, 22] | IC50 [6, 23] | pIC50 (mean) [6, 24] | logD ([7]; c(Cl–) = 4 mM) | logD ([7]; c(Cl–) = 24 mM) | logD ([7]; c(Cl–) = 100 mM) | other results
c1ccc(-c2ccnc3c2ccc2c(-c4ccccc4)ccnc23)cc1 [BP, 4,7-diphenyl-1,10-phenanthroline] | 0.63 µM | 0.631 µM | 0.76 µM | 54.7 | 3.4 | – | – | – | – | – | – | – | – | – | – | – | – | – | – | – | IC50 [2, 9]: 0.759 µM; IC50 [3, 10]: 0.59 µM; IC50 [3, 11]: 0.589 µM; IC50 [4, 12]: 0.01 µM; IC50 [4, 13]: 0.00851 µM; IC50 [5, 14]: 0.47 µM; IC50 [5, 15]: 0.468 µM; IC50 [6, 16]: 0.14 µM; IC50 [6, 17]: 0.138 µM; logD at 4 h ([7]; c(Cl–) = 100 mM): 3.69
Clc1ccnc2c1ccc1c(Cl)ccnc12 [DCP, 4,7-dichloro-1,10-phenanthroline] | 4.29 µM | 4.27 µM | 5.09 µM | 6.3 | 0.6 | 3.05 µM | – | – | – | – | – | – | – | – | – | – | – | – | – | – | IC50 [2, 9]: 5.13 µM; IC50 [3, 10]: 3.84 µM; IC50 [3, 11]: 3.8 µM; IC50 [4, 12]: 0.48 µM; IC50 [4, 13]: 0.49 µM; IC50 [5, 14]: 3.1 µM; IC50 [5, 15]: 3.02 µM; IC50 [6, 16]: 4.9 µM; IC50 [6, 17]: 4.9 µM; logD at 4 h ([7]; c(Cl–) = 100 mM): 2.4
Cc1c(C)c(C)[c-](C)c1C.Clc1ccnc2c1ccc1c(Cl)ccnc12.[Cl-].[Cl-].[Rh+3] [RhCp*DCP, [Rh(III)(η^5-C5Me5)(4,7-dichloro-1,10-phenanthroline)Cl]Cl] | – | – | – | 5.6 | 0.7 | – | 7.36 µM | 5.13 | 7.56 µM | 5.12 | 5.92 µM | 5.23 | 0.75 µM | 6.12 | 5.38 | 6.38 µM | 5.20 | –1.03 ± 0.03 | –0.59 ± 0.02 | –0.38 ± 0.02 | IC50 ([5]; MES-SA mCherry, coculture, 384-well plate, 144 h, listed as [RhCp*(DCP)Cl]Cl, read-out: IC50): 4.2 µM and 4.22 µM
Cc1ccc(C(C)C)cc1.[Cl-].[Cl-].[Ru+2].c1ccc(-c2ccnc3c2ccc2c(-c4ccccc4)ccnc23)cc1 [RuCymBP, [Ru(II)(η^6-p-cymene)(bathophenanthroline)Cl]Cl] | – | – | – | 0.01 | 0.01 | 0.53 µM | 1.86 µM | 5.73 | 1.23 µM | 5.91 | 1.93 µM | 5.71 | 41 µM | 4.39 | 6.28 | 55 µM | 4.26 | +1.46 ± 0.02 | +1.97 ± 0.02 | +2.48 ± 0.02 | –
Cc1ccc(C(C)C)cc1.Clc1ccnc2c1ccc1c(Cl)ccnc12.[Cl-].[Cl-].[Ru+2] [RuCymDCP, [Ru(II)(η^6-p-cymene)(4,7-dichloro-1,10-phenanthroline)Cl]Cl] | – | – | – | – | – | 65.6 µM | 75 µM | 4.13 | > 100 µM | – | 76.4 µM | 4.12 | > 100 µM | – | 4.18 | > 100 µM | – | –0.55 ± 0.04 | +0.04 ± 0.12 | +0.35 ± 0.12 | –
[Rh(III)(η^5-C5Me5)(bathophenanthroline)Cl]Cl [RhCp*BP] | – | – | – | 6.7 | 1.1 | – | 5.28 µM | 5.28 | 4.68 µM | 5.33 | 14.9 µM | 4.83 | 0.23 µM | 6.63 | 5.81 | 1.37 µM | 5.86 | +0.82 ± 0.01 | +1.35 ± 0.03 | – | IC50 ([4]; MES-SA/Dx5-eGFP, coculture, 96-well plate, media replaced before measurement, read-out: IC50): 1.77 µM; pIC50 (mean) ([4]; Mes-Sa/Dx5 eGFP, 96-well plate, Table S6): 5.75; SR (MES-SA/Dx5) ([4]; 96-well plate): 1.6; IC50 ([5]; MES-SA mCherry, coculture, 96-well plate, media replaced before measurement, read-out: IC50): 2.9 µM; IC50 ([5]; MES-SA mCherry, coculture, 384-well plate, 144 h, listed as [RhCp*(BP)Cl]Cl, read-out: IC50): 1.56 µM; pIC50 (mean) ([5]; Mes-Sa mCherry, 96-well plate, Table S6): 5.54; IC50 ([6]; MES-SA/B1-mOrange, coculture, 96-well plate, media replaced before measurement, read-out: IC50): 2.43 µM; pIC50 (mean) ([6]; Mes-Sa/B1 mOrange, 96-well plate, Table S6): 5.61; SR (MES-SA/B1) ([6]; 96-well plate): 1.2

Reference: PMC12308784, “Organometallic Half-Sandwich Complexes of 1,10-Phenanthroline Derivatives with Improved Solubility, Albumin-Binding, and Nanoformulation Potential Targeting Drug Resistance in Cancer” (Inorganic Chemistry, 2025)
